Measurements from patent US20160175485A1, “COMBINATION THERAPY TO PROMOTE WOUND HEALING” (THE REGENTS OF THE UNIVERSITY OF CALIFORNIA, priority 2013, published 2016).

Key:
BM-MSC [1] = assay: Secreted IL-6 ELISA in BM-MSC; type: cell-based, human; details: for increase in IL-6 secretion as compared to untreated control cells: four hours, EPI 50 nM, MALP2 100 ng/ml, HKSA 10^4 cells/ml
Source text: (§1) Human bone marrow aspirations obtained from four healthy donors were purchased from Lonza. MSC were harvested from bone marrow (BM) following established protocols (26, 27), and used between passages 3-5. Characterization of MSC included differentiation into osteogenic and adipogenic lineage cells, as described previously (27). The stem cell research oversight (SCRO) review board at the University of California, Davis approved all the human cell protocols.
(§2) Epinephrine (EPI: Sigma) and TLR2 ligands (macrophage activating lipoprotein-2: MALP2—that specifically activates TLR2/6 heterodimerization, and heat killed Staphylococcus aureus: HKSA; Invivogen) treatments were carried out at the indicated times and concentrations. All the cells were maintained in 0.5% fetal bovine serum containing culture medium overnight prior to treatment. Cells were exposed to different treatments in fresh serum-free medium. In some experiments, cells were pretreated for 30 minutes with Timolol (10 μM; Sigma) or ICI-118, 551 (ICI; 10 μM; Tocris) followed by EPI and MALP2 treatment as described previously (11-13, 30).
(§3) Levels of interleukin-6 (IL-6) were measured with an ELISA kit (R&D systems). IL-6 levels were normalized to total cell protein and expressed as pg/μg protein β1).

NHK [2] = assay: Secreted IL-6 ELISA in NHK; type: cell-based, human; details: for increase in IL-6 secretion as compared to untreated NHK: four hours, EPI 50 nM, MALP2 100 ng/ml, HKSA 10^4 cells/ml
Source text: NHK were isolated from human neonatal foreskins, cultured and maintained, as reported earlier (28,29). NHKs isolated from at least three different foreskins and between passages 3 and 7 were used in all the experiments. The Institutional Review Board at UC Davis approved the protocol for obtaining discarded neonatal foreskins.
as §2, §3

BM-MSC [3] = assay: Real time PCR (TLR2, ADRB2 mRNA) in BM-MSC; type: cell-based, human
Protocol: as §2
mRNA expression was determined by real-time PCR (RT-PCR), using sequence-specific primers and probes. Total RNA was extracted from the cells using Qiagen RNeasy mini kit. The first strand of cDNA was synthesized using 1 μg of total RNA. cDNA (50 ng) was amplified using primer probe sets for TLR2, beta-2-adrenergic receptor (ADRB2) and three housekeeping genes: beta-2-microglobulin, GAPDH, and RPLPO using standard cycling parameters. Data were calculated using the 2-ΔΔCt method and are presented as fold change (ratio of transcripts of gene normalized to the three house-keeping genes) (11-13, 31).

BM-MSC [4] = assay: Western blots in BM-MSC; type: cell-based, human
Protocol: as §2
(§4) Twenty five μg of total protein was resolved, transferred, and probed with antibodies for β2-AR (Abcam), phospho beta-adrenergic receptor activated kinase-1 (BARK-1/GRK2 referred to as BARK-1 from here after; GeneTex), TLR2 (Imgenex) Myeloid differentiation factor 88 (MyD88; Imgenex), phospho interleukin receptor activated kinase-1 (pIRAK-1 and IRAK-1; Cell Signaling), phospho ERK1/2 (Santacruz), phenylethanolamine N-methyltransferase (PNMT) and tyrosine hydroxylase (TH), and stripped membranes were further incubated with respective total antibodies or GAPDH or α-tubulin. TLR2 (Imgenex) and β2-AR (Santacruz) antibodies were used for co-immunoprecipation assays and antibody protein complexes were further probed with above antibodies β1). Protein A/G-sepharose beads and isotype matched IgG antibodies were used as negative controls in all the co-immunoprecipitation experiments along with the antibody used for the pull down as a positive control. Band intensities were determined as described previously and normalized to GAPDH/α-tubulin or total protein (BARK-1) and densitometric ratios are presented as fold change vs control β1). For some experiments, cell lysates from three independent experiments were pooled to get enough protein for the assay and repeated three times for densitometry purposes.

C57BL/6J mice = assay: Full-thickness cutaneous wounds in EPI stressed mice (osmotic pumps); type: in vivo, mouse; details: for wound closure: EPI 7 mg/kg body weight/day, ICI 0.7 mg/kg body weight/day by osmotic pump; for TLR2 expression in wound tissue: day 7 after injury; for IL-6 levels in the wound tissue / phosphorylation of ERK1/2 in wounds: mouse, in vivo
Protocol: C57BL/6J (male; 8-10 week age; Jax Mice) with ad libitum access to food and water were anesthetized using isoflurane and one 6 mm circular diameter full-thickness wound was placed on the dorsal shaved skin β1). Micro-osmotic pumps (0.25 μl/hour; Alzet micro-osmotic pump Model: 1002, Alzet) were implanted on the right flank of the mice to deliver 7 mg/kg body weight/day EPI and 0.7 mg/kg body weight/day of ICI) as we have previously reported (11-13,30). At 7 or 11 days after injury, the mice were euthanized, the wound tissue was harvested by 8 mm punch excision and stored frozen or formalin—fixed until further analysis. Animal protocols were approved by the IACUC at UC Davis.

murine macrophages = details: epinephrine pretreatment; cited from earlier work
[5] = system: monocytic cell line and rat macrophages; details: supraphysiologic levels of EPI (5000-10,000 ng/ml); cited from earlier work
NHK [6] = assay: Scratch wound assay in confluent NHK cultures; type: cell-based, human; details: 30 minutes pretreatment; for IL-6 secretion in wounded NHK confluent sheets: antagonists 10 μM; for effect on EPI+MALP2 or EPI+HKSA delayed NHK migration: scratch-wounded NHK, antagonist 10 μM
Protocol: as §3
The rate of healing scratch wounds made in confluent NHK cultures was determined as reported previously (30, 32). Briefly, cells were pretreated with 10 μg/ml mitomycin (EMD Millipore) for 1 hr to inhibit cell proliferation that could skew the data analysis. Wounded cultures were incubated in growth medium (control) containing EPI, TLR2 ligands, and/or Timolol or ICI. Velocity Image analysis software (Perkin Elmer) was used to measure the scratch wound area, which is expressed as percent closed wound.

Bone marrow MSCs = assay: BM-MSC migration tracked for 12 hours after antagonist treatment (FIG. 11); type: cell-based, human; details: treated 1 hour, tracked 12 hours
Protocol: FIG. 11 illustrates that results are not limited to one class of beta adrenergic antagonist. Bone marrow MSCs from two different individuals were cultured and treated with either a non-specific beta adrenergic receptor antagonist (timolol) or a beta 2 adrenergic receptor specific antagonist (ICI 118,551) at stated concentrations for 1 hour, then cell migration was tracked for 12 hours. For each experiment 80-90 cells were tracked. Means+/−SEM shown, *=p<0.005.

[7] = cited from earlier work
RAW 264.7 macrophages = details: cited from earlier work
BM-MSC [8] = assay: Single-cell migration of BM-MSC; type: cell-based, human; details: EPI 50 nM, MALP2 100 ng/ml, Timolol 10 μM, 30 min pretreatment
Source text: as §1, §2

NHK [9] = assay: Western blots (PNMT, TH) in NHK; type: cell-based, human
Protocol: as §2
Twenty five μg of total protein was resolved, transferred, and probed with antibodies for β2-AR (Abcam), phospho beta-adrenergic receptor activated kinase-1 (BARK-1/GRK2 referred to as BARK-1 from here after; GeneTex), TLR2 (Imgenex) Myeloid differentiation factor 88 (MyD88; Imgenex), phospho interleukin receptor activated kinase-1 (pIRAK-1 and IRAK-1; Cell Signaling), phospho ERK1/2 (Santacruz), phenylethanolamine N-methyltransferase (PNMT) and tyrosine hydroxylase (TH), and stripped membranes were further incubated with respective total antibodies or GAPDH or α-tubulin. TLR2 (Imgenex) and β2-AR (Santacruz) antibodies were used for co-immunoprecipation assays and antibody protein complexes were further probed with above antibodies β1). […]

NHK [10] = assay: Co-immunoprecipitation with β2-AR and TLR2 antibody in NHK; type: cell-based, human; details: MALP2 100 ng/ml
Source text: as §4

BM-MSC [11] = assay: HPLC detection of catecholamines in BM-MSC supernatants; type: cell-based, human; details: MALP2 100 ng/ml
Protocol: (§5) Cell culture samples from at least from three independent experiments were acidified with perchloric acid to 0.2N prior to storage at −80° C. for future analysis. The supernatant were applied to conditioned MonoSpin® PBA solid phase extraction spin columns (GL Sciences) and purifications were performed according to the manufacturer's specifications. Catecholamines were eluted in 200 μL of 2% acetic acid.
(§6) HPLC separation was performed using a Synergi™ 4 um Fusion-reverse phase 250×4.6 mm column (Phenomenex) and a HP series 1050 pump and auto injector system. The mobile phase for chromatographic separation was a modification of that used by Leis et al (33). Detection of catecholamine compounds was performed using a LC-4C amperometric detector (Bioanalytical Systems) using potential of […]. Catecholamine levels are presented as pg/μg cell protein.

NHK [12] = assay: HPLC detection of catecholamines in NHK supernatants; type: cell-based, human
Protocol: as §5, §6

[13] = BM-MSC, Timolol 10 μM, 30 min pretreatment

CNC[C@H](O)c1ccc(O)c(O)c1 [EPI, Epinephrine]
increase in IL-6 secretion as compared to untreated control cells (BM-MSC [1]; BM-MSC): 3.8 fold
EPI concentration of maximal induction of IL-6 secretion (BM-MSC [1]; EPI 50-1000 nM, 4 hr and 24 hr): 50 nM
increase in IL-6 secretion as compared to untreated NHK (NHK [2]): 16 fold
TLR2 mRNA expression (BM-MSC [3]; EPI 50 nM): significantly increased
BARK-1 phosphorylation (BM-MSC [4]): increased
MyD88 protein expression (BM-MSC [4]; EPI 50 nM): significantly elevated
TLR2 protein levels (BM-MSC [4]; EPI 50 nM): significantly increased
wound closure (C57BL/6J mice): significantly decreased
TLR2 expression in wound tissue (C57BL/6J mice): increased
IL-6 levels in the wound tissue (C57BL/6J mice): significantly elevated
phosphorylation of ERK1/2 in wounds (C57BL/6J mice): Decreased
TNF-α production with LPS stimulation (murine macrophages): significantly increases
TLR4 mRNA expression [5]: decreases

Cc1ccc(OCC(O)C(C)NC(C)C)c2c1CCC2 (stereo not drawn) [ICI 118,551]
IL-6 release by human keratinocytes under β adrenergic receptor antagonist (NHK [2]): suppression
IL-6 secretion in wounded NHK confluent sheets (NHK [6]): reverses
effect on EPI+MALP2 or EPI+HKSA delayed NHK migration (NHK [6]): reverses
wound closure (C57BL/6J mice): reversed
TLR2 expression in wound tissue (C57BL/6J mice): reversed
IL-6 levels in the wound tissue (C57BL/6J mice): decreased
phosphorylation of ERK1/2 in wounds (C57BL/6J mice): increases
migratory speed of bone marrow derived MSC (Bone marrow MSCs): increase migratory speed

CC(C)(C)NCC(O)COc1cccc2c1CC(O)C(O)C2 (stereo not drawn) [Nadolol]
lipid solubility [7]: low

CC(C)(C)NC[C@H](O)COc1nsnc1N1CCOCC1 [Timolol]
decrease of EPI+HKSA induced IL-6 secretion by pretreatment (BM-MSC [1]; [13]): 1.5 fold
decrease of EPI+MALP2 induced IL-6 secretion by pretreatment (BM-MSC [1]; [13]): 33 fold
IL-6 levels (BM-MSC [1]; BM-MSC, mean±SD, antagonist 10 μM, 30 min pretreatment): 4.8±2.7 pg/μg protein
IL-6 release by human keratinocytes under β adrenergic receptor antagonist (NHK [2]): suppression
IL-6 secretion in wounded NHK confluent sheets (NHK [6]): reverses
effect on EPI+MALP2 or EPI+HKSA delayed NHK migration (NHK [6]): reverses
migratory speed of bone marrow derived MSC (Bone marrow MSCs): increase migratory speed

OCc1cc(C(O)CNCCCCCCOCCCCc2ccccc2)ccc1O (stereo not drawn) [salmeterol]
IL-1β and IL-6 protein production (RAW 264.7 macrophages): significant increase
increase in IL-1β transcripts (RAW 264.7 macrophages): 80 fold
increase in IL-6 transcripts (RAW 264.7 macrophages): 8 fold

MALP2
increase in IL-6 secretion as compared to untreated control cells (BM-MSC [1]; BM-MSC): 2.6 fold
increase in IL-6 secretion as compared to untreated NHK (NHK [2]): 8.8 fold
inhibition in migratory speed (BM-MSC [8]): 15%
β2-adrenergic receptor mRNA expression (BM-MSC [3]; MALP2 100 ng/ml): significantly up-regulated
BARK-1 phosphorylation (BM-MSC [4]): significantly increased
PNMT and TH enzymes (BM-MSC [4]): induced
β2-adrenergic receptor protein expression (BM-MSC [4]; MALP2 100 ng/ml): significantly up-regulated
PNMT and TH enzymes (NHK [9]): induced
β2-AR expression and BARK-1 phosphorylation in TLR2 immunoprecipitates (NHK [10]): noticeable increase
EPI and norepinephrine levels in cell culture supernatants (BM-MSC [11]): increased
catecholamine response of NHKs relative to BM-MSC (NHK [12]; MALP2 treated): 2-4 fold
EPI and norepinephrine levels in cell culture supernatants (NHK [12]; NHK, MALP2 100 ng/ml): increased

Polymyxin B
effect of pretreatment on EPI or MALP2 induced IL-6 levels (BM-MSC [1]; BM-MSC, endotoxin control): did not affect
